Experimental data as given in US7846903B2, “Type II cubic liquid crystal composition” (National Institute of Advanced Industrial Science and …, priority 2004, dated 2010).
Blank lines part the entries; values can stand above or below the molecule they belong to.

Columns and labels:
[1] = Krafft temperature (TK) by DSC of amphiphilic compound/water system; assay type: physicochemical; settings: for Krafft temperature (° C.): amphiphilic compound alone; for TK (Krafft temperature): compound/water system
Procedure: Liquid crystals such as cubic liquid crystals formed by amphiphilic lipids are formed only at the Krafft temperature (TK), as determined depending on types and concentrations of amphiphilic lipids, or higher. Furthermore, liquid crystals generally undergo a phase transition upon changes in the concentration of the amphiphilic lipid or temperature. Accordingly, the maximal temperature (Tmax) at which a given liquid crystal structure can be stably present is also determined depending on lipid type and concentration of amphiphilic lipid. Thus, a liquid crystal structure formed by a given type of amphiphilic lipid is stably formed in the temperature range between TK and Tmax. The correlation between TK-Tmax and the concentration of the amphiphilic lipid is generally indicated as a “concentration-temperature dependent phase diagram” of the amphiphilic lipid/water system. The Krafft temperature of the amphiphilic lipid can be determined by a method known in the art, such as a method involving the preparation of such a phase diagram (e.g., Laughlin, R. G., “The Aqueous Phase Behavior of Surfactants,” 1994, Academic Press London, pp. 106-117). The Krafft temperature of a mixture of two or more amphiphilic lipids can be determined by the same method.
In the cubic liquid crystal composition of the present invention, stable bicontinuous type II cubic liquid crystals are formed at low temperatures, such as lower than 6° C. In the liquid crystal composition of the present invention, stable bicontinuous type II cubic liquid crystals are typically formed between −10° C. (or at the freezing temperature of the aqueous medium used or higher) and 80° C., and preferably between 0° C. and 50° C. The Krafft temperature of the amphiphilic lipid can be easily determined by, for example, DSC assay of an aqueous solution containing 1% to 85% by mass of amphiphilic lipid or by observing the melting behavior of the amphiphilic lipid under a (polarizing) microscope. More precisely, such temperature may be determined in accordance with a conventional technique involving the preparation of a phase diagram (e.g., Laughlin, R. G., “The Aqueous Phase Behavior of Surfactants,” 1994, Academic Press, London, pp. 106-117).
The Krafft temperatures of these amphiphilic compounds and mixtures thereof determined by the analyses described below are shown in Table 2-1 and Table 2-2.
Subsequently, the sample of mono-O-(phytanyl)pentaerythritol/water system was subjected to differential scanning calorimetry (DSC) in a temperature range between −45° C. and 70° C. DSC analysis employed the Seiko SSC/560U differential scanning calorimeter (Seiko Instruments Inc.). The sample of mono-O-(phytanyl)pentaerythritol/water system (72.4% by mass) prepared by the above method was sealed in a DSC cell, and the sample was incubated while cooling at −45° C. for 3 hours to thoroughly form a hydrated solid of mono-O-(phytanyl)pentaerythritol (hereafter abbreviated as “hydrated solid”). Subsequently, this hydrated solid was heated at a rate of temperature increase of 0.5° C./minute and a melting behavior of the hydrated solid was inspected by DSC analysis. As a result, an endothermic peak resulting from melting of the hydrated solid that begins at around −40° C. and ends at around −27° C. and an endothermic peak resulting from ice melting observed between −10° C. and 1° C. were observed, as shown in FIG. 4. In FIG. 4, the left peak is the endothermic peak resulting from melting of the hydrated solid and the right peak is the endothermic peak resulting from ice melting. Although analysis was conducted up to 70° C., other thermal transition was not observed. Substantially the same results were obtained at other concentrations. Thus, the TK of mono-O-(phytanyl)pentaerythritol was concluded to be 0° C. or lower.

[2] = Formation and structure of cubic liquid crystals by polarizing microscopy (penetration method) and SAXS; assay type: physicochemical; settings: for liquid crystal phase formed: mixed with water, polarizing microscopy and/or SAXS
Source text: Whether or not the amphiphilic lipid/water system forms cubic liquid crystals and whether or not such composition is type I or II can be easily determined by the penetration method. A small amount (several mg) of amphiphilic lipids is placed on a glass slide for a microscope, and slight pressure is applied with a glass cover to form a thin layer of amphiphilic lipids (diameter: about 1 to 5 mm) with a thickness of about 10 μm in the gap between the glass slide and the glass cover. Upon addition of water or an aqueous medium from a side of the gap between the glass slide and the glass cover by capillary action, water gradually invades the amphiphilic lipid thin layer from the exterior edge, and a water content gradient is formed from the amphiphilic lipid thin layer/water interface toward the inside of the amphiphilic lipid thin layer. Polarizing microscopic observation thereof enables the determination of a phase type formed depending on the concentration of the amphiphilic lipid/water system. […] In FIG. 2, 4 regions are observed. The rightmost region in the photograph indicates a water region, and the other regions indicate hydrous amphiphilic lipid regions. In the photograph, the rightmost regions indicates the highest water content and the leftmost region indicates a region of amphiphilic lipids that has not yet been penetrated by water. […] Since cubic liquid crystals are stably formed at the interface of excess water and the amphiphilic lipid portion, such crystals are found to be of type II.
To this end, whether or not the liquid crystal structure has cubic lattices may be investigated by the small-angle x-ray scattering (SAXS) assay. In this process, a sample of an amphiphilic lipid/water system at a given concentration may be introduced into a quartz X-ray capillary tube, the capillary may be sealed with an oxygen burner, and the resultant may be subjected to the SAXS assay.
The cubic liquid crystal composition of the present invention is not particularly limited. […] Thus, spaces and lattice constants can be easily determined. The peak values of small angle X-ray scattering or the cubic lattice size of cubic liquid crystals in the presence of an excess aqueous solvent are at constant levels regardless of the lipid concentration. The coexistence state of cubic liquid crystals and an excess aqueous medium can be confirmed by the SAXS assay. Thus, whether or not the cubic liquid crystals are of type II can be easily determined.
In equations, nL and nW are actually measurable, and ac can be measured by the SAXS experiment. Thus, the dhc value can be determined based on equations (ii) and (iii). […] Based on such comparison, whether or not the cubic liquid crystal structure is of a bicontinuous type can be determined.
Mono-O-(3,7,11,15-tetramethylhexadecyl)pentaerythritol (hereafter referred to as “mono-O-(phytanyl)pentaerythritol,” formula (5) above) and pure water were introduced into a mixing device, and incubation was carried out while performing 100 or more times of mixing operations at room temperature (23° C.) over the period of 48 hours. Thus, a homogeneously mixed sample of mono-O-(phytanyl)pentaerythritol/water system was obtained. This sample of mono-O-(phytanyl)pentaerythritol/water system appeared to be a transparent gel composition.
Subsequently, the thus obtained sample of mono-O-(phytanyl)pentaerythritol/water system (the concentration of the amphiphilic compound: 74.6% by mass) was observed by polarizing microscopy. In entire region of the lipid portions, optically isotropic textures peculiar to the cubic liquid crystals were observed (FIG. 3). In FIG. 3, the right region indicates water and the left region indicates the sample of mono-O-(phytanyl)pentaerythritol/water system. […] Such observation indicates the formation of cubic liquid crystals.
Subsequently, the sample of mono-O-(phytanyl)pentaerythritol/water system was confirmed to be a cubic liquid crystal by small-angle x-ray scattering (SAXS). […]

[3] = lipid alone, total amphiphilic compound content 60% by mass (excess water)

SMILES: CC(C)CCCC(C)CCCC(C)CCCC(C)CCCC(=O)OCC(O)C(O)CO (stereo not shown) [formula (7), 1-O-(5,9,13,17-tetramethyloctadecanoyl)erythritol]
- Krafft temperature (° C.) [1]: 0 °C or lower
- TK (Krafft temperature) [1]: ≤ 0 °C

SMILES: CC(C)CCCC(C)CCCC(C)CCCC(C)CCOCC(CO)(CO)CO (stereo not shown) [formula (5), mono-O-(3,7,11,15-tetramethylhexadecyl)pentaerythritol]
- Krafft temperature (° C.) [1]: 0 °C or lower
- TK (Krafft temperature) [1]: ≤ 0 °C
- maximal temperature at which the cubic liquid crystal structure is formed [2]: 40 °C
- lattice constant ([2]; 56.7% by mass, Pn3m cubic liquid crystals, 1° C.): 8.2 nm
- lattice constant ([2]; 74.6% by mass, Ia3d cubic liquid crystals, 1° C.): 12.3 nm
- Temperature at which formation of cubic liquid crystals was observed (° C.) ([2]; 74.6% by mass, two-phase system of Ia3d and Pn3m cubic liquid crystals): 25 (Two-phase system of Ia3d and Pn3m cubic ° C.
- dhc value of bilayer membrane of the cubic liquid crystal structure ([2]; calculated based on SAXS results): 1.17±0.1 nm
- diameter of the water channel of the cubic liquid crystals [2, 3]: 2.5 nm
- lattice constant of the cubic liquid crystals [2, 3]: 7.06 nm

SMILES: CC(C)CCCC(C)CCCC(C)CCCC(C)CCCCOCC(CO)(CO)CO (stereo not shown) [formula (8), mono-O-(5,9,13,17-tetramethyloctadecyl)pentaerythritol]
- Krafft temperature (° C.) [1]: 0 °C or lower
- TK (Krafft temperature) [1]: ≤ 0 °C
- liquid crystal phase formed [2]: bicontinuous type II Pn3m cubic liquid crystals

SMILES: CC(C)CCCC(C)CCCC(C)CCOCC(O)C(O)CO (stereo not shown) [formula (2), 1-O-(3,7,11-trimethyldodecyl)erythritol]
- Krafft temperature (° C.) [1]: 0 °C or lower

SMILES: CC(C)CCCC(C)CCCC(C)CCCC(C)CC(=O)OCC(CO)(CO)CO (stereo not shown) [formula (6), mono-O-(3,7,11,15-tetramethylhexadecanoyl)pentaerythritol]
- Krafft temperature (° C.) [1]: 0 °C or lower
- TK (Krafft temperature) [1]: ≤ 0 °C
- lattice constant ([2]; 58.9% by mass, 25° C.): 10.6 nm
- lattice constant ([2]; 58.9% by mass, 55° C.): 8.3 nm
- Temperature at which formation of cubic liquid crystals was observed (° C.) ([2]; Table 4, 56.0% by mass, two-phase system of Pn3m cubic and lamellar liquid crystals): 1 (Two-phase system of Pn3m cubic liquid ° C.

SMILES: CC(C)CCCC(C)CCCC(C)CCCC(C)CCOCC(O)CO (stereo not shown) [1-O-(3,7,11-15-tetramethylhexadecyl)glycerol, reference compound]
- liquid crystal phase formed [2]: type II hexagonal liquid crystals

SMILES: CC(C)CCCC(C)CCCC(C)CCCCOCC(O)C(O)CO (stereo not shown) [formula (3), 1-O-(5,9,13-trimethyltetradecyl)erythritol]
- Krafft temperature (° C.) [1]: 0 °C or lower
- TK (Krafft temperature) [1]: ≤ 0 °C
- lattice constant ([2]; Ia3d, 53.7% by mass, 20° C.): 17.3 nm
- lattice constant ([2]; Ia3d, 53.7% by mass, 35° C.): 17.2 nm
- lattice constant ([2]; Ia3d, 53.7% by mass, 40° C.): 17.1 nm
- Temperature at which formation of cubic liquid crystals was observed (° C.) ([2]; Table 6, 53.7% by mass, Ia3d + Pn3m): 40 (Ia3d + Pn3m cubic liquid crystals) ° C.

Further lines, with some results ahead:

- Krafft temperature (° C.) [1]: 0 °C or lower
- TK (Krafft temperature) [1]: ≤ 0 °C
SMILES: CC(C)CCCC(C)CCCC(C)CCCC(C)CCCC(=O)OCC(CO)(CO)CO (stereo not shown) [formula (9)]
- liquid crystal phase formed [2]: bicontinuous type II Pn3m cubic liquid crystals

- Krafft temperature (° C.) [1]: 0 °C or lower
- TK (Krafft temperature) [1]: ≤ 0 °C
SMILES: CC(C)CCCC(C)CCCC(C)CCCCOCC(CO)(CO)CO (stereo not shown) [formula (12), mono-O-(5,9,13-trimethyltetradecyl)pentaerythritol]

- Krafft temperature (° C.) [1]: 0 °C or lower
- TK (Krafft temperature) [1]: ≤ 0 °C
- lattice constant ([2]; 61.5% by mass, 1° C.): 10.1 nm
- lattice constant ([2]; 61.5% by mass, 30° C.): 9.9 nm
- lattice constant ([2]; 61.5% by mass, 40° C.): 9.5 nm
SMILES: CC(C)CCCC(C)CCCC(C)CCCC(C)CCCCOC1OC[C@@H](O)C(O)C1O (stereo partly drawn) [formula (10), 1-O-(5,9,13,17-tetramethyloctadecyl)-β-D-xylopyranoside]

- Krafft temperature (° C.) [1]: 0 °C or lower
- TK (Krafft temperature) ([1]; listed as α-XP): ≤ 0 °C
- lattice constant ([2]; 84.2% by mass, 1° C.): 9.8 nm
- lattice constant ([2]; 84.2% by mass, 25° C.): 9.7 nm
- lattice constant ([2]; 84.2% by mass, 40° C.): 9.6 nm
- Temperature at which formation of cubic liquid crystals was observed (° C.) ([2]; Table 12, 78.0% by mass, Ia3d): 1 (Ia3d cubic liquid crystals) ° C.
SMILES: CC(C)CCCC(C)CCCC(C)CCCC(C)CCOC1OC[C@@H](O)C(O)C1O (stereo partly shown) [formula (11)]

- Krafft temperature (° C.) [1]: 0 °C or lower
- TK (Krafft temperature) [1]: ≤ 0 °C
- lattice constant ([2]; Ia3d, 69% by mass, 30° C.): 17.4 nm
- lattice constant ([2]; Ia3d, 69% by mass, 40° C.): 16.9 nm
- lattice constant ([2]; Ia3d, 69% by mass, 50° C.): 17.0 nm
- lattice constant ([2]; Pn3m, 61% by mass, 1° C.): 12.2 nm
- lattice constant ([2]; Pn3m, 61% by mass, 20° C.): 12.2 nm
- lattice constant ([2]; Pn3m, 61% by mass, 30° C.): 12.1 nm
- lattice constant ([2]; Pn3m, 61% by mass, 40° C.): 11.4 nm
- lattice constant ([2]; Pn3m, 61% by mass, 50° C.): 11.0 nm
- lattice constant ([2]; Pn3m, 61% by mass, 60° C.): 10.1 nm
SMILES: CC(C)CCCC(C)CCCC(C)CCCC(C)CCCC(=O)OC[C@H](O)[C@H]1OC(=O)C(O)=C1O (stereo partly drawn) [formula (15), 6-O-(5,9,13,17-tetramethyloctadecanoyl)-L-ascorbic acid]
- Temperature at which formation of cubic liquid crystals was observed (° C.) ([2]; Table 13, 69% by mass, two-phase system of Pn3m and Ia3d cubic liquid crystals): 20 (Two-phase system of Pn3m and Ia3d ° C.
